Measurements published in US9725465B2, “Biaryl acetamide compounds and methods of use thereof” (Ambit Biosciences Corporation, priority 2013, dated 2017).

Legend:
KIT kinase = KIT kinase (Homo sapiens (Human), UniProt P10721); test: Competition binding assay (Kd), KIT; details: competition binding assay
Summary of the method: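 Kinase, as T7 phage fusion or HEK-293-expressed DNA-tagged protein, competed off immobilised ligand beads by test compound (eleven-point threefold dilutions, from 100× DMSO stocks). Eluted kinase quantified by qPCR to derive Kd; DMSO used as control.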

FLT3-ITD = FLT3-ITD (Homo sapiens (Human), UniProt P36888, INS600HVDFREYEYD); test: pFLT3 MSD assay, Ba/F3 FLT3-ITD; assay type: cell-based; details: Ba/F3 FLT3-ITD cells, 2 hours, read-out: BaF3-FLT3-ITD pFlt3 IC50
FLT3-ITD, sequence (P36888 other isoform, or with tags, fused parts or gaps limits assumed, stated change not applied): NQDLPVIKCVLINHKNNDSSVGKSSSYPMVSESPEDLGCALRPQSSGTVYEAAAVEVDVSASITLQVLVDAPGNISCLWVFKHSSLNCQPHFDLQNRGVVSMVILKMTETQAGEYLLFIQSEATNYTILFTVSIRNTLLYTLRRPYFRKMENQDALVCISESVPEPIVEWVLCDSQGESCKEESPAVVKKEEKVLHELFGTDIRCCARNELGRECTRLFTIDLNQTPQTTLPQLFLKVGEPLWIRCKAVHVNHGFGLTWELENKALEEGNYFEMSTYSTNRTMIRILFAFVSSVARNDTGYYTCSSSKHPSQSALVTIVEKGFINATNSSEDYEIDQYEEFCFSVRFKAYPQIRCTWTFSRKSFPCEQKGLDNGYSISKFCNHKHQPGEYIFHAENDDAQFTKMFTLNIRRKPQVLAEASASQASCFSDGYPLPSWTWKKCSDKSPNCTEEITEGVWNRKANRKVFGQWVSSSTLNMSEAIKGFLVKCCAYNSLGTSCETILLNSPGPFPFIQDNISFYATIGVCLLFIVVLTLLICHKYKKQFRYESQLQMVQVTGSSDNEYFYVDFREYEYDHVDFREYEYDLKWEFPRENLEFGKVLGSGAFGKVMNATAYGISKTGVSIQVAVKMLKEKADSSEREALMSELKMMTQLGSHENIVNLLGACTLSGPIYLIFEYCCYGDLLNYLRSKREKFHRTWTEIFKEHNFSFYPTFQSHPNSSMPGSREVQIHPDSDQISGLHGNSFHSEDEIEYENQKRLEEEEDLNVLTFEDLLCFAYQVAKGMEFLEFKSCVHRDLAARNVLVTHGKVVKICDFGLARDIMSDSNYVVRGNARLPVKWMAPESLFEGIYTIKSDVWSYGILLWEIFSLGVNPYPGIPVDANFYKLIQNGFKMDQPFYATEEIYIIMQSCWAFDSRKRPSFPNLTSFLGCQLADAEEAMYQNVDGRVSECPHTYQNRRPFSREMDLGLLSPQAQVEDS

FLT3 kinase = FLT3 kinase (Homo sapiens (Human), UniProt P36888); test: Competition binding assay (Kd), FLT3; details: competition binding assay
FLT3 kinase, sequence (P36888 27-993): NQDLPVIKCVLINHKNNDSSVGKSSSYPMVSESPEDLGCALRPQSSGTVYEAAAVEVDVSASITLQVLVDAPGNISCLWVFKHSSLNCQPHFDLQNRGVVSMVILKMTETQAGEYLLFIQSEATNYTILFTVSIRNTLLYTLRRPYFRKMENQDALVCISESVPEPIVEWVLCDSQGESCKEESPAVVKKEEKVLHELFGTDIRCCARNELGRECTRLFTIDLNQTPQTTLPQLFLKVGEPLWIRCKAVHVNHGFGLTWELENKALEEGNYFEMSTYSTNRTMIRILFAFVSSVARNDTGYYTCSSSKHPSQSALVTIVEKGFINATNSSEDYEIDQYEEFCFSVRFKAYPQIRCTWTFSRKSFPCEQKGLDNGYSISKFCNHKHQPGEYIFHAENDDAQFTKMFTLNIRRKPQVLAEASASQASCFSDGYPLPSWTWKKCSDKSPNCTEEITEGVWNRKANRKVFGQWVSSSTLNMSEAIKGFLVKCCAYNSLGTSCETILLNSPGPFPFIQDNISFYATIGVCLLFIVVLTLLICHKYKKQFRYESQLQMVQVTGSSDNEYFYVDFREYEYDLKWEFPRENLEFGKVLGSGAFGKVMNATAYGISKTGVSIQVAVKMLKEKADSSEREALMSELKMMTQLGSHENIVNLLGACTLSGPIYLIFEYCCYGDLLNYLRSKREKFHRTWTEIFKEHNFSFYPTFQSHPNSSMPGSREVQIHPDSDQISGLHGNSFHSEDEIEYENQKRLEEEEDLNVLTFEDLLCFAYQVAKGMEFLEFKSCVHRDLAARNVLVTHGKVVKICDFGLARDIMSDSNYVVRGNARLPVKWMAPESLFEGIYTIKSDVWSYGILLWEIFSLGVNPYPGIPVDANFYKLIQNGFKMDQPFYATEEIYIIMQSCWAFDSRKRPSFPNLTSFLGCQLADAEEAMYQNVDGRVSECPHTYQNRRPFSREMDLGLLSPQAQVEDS

KIT kinase, sequence (P10721 26-976): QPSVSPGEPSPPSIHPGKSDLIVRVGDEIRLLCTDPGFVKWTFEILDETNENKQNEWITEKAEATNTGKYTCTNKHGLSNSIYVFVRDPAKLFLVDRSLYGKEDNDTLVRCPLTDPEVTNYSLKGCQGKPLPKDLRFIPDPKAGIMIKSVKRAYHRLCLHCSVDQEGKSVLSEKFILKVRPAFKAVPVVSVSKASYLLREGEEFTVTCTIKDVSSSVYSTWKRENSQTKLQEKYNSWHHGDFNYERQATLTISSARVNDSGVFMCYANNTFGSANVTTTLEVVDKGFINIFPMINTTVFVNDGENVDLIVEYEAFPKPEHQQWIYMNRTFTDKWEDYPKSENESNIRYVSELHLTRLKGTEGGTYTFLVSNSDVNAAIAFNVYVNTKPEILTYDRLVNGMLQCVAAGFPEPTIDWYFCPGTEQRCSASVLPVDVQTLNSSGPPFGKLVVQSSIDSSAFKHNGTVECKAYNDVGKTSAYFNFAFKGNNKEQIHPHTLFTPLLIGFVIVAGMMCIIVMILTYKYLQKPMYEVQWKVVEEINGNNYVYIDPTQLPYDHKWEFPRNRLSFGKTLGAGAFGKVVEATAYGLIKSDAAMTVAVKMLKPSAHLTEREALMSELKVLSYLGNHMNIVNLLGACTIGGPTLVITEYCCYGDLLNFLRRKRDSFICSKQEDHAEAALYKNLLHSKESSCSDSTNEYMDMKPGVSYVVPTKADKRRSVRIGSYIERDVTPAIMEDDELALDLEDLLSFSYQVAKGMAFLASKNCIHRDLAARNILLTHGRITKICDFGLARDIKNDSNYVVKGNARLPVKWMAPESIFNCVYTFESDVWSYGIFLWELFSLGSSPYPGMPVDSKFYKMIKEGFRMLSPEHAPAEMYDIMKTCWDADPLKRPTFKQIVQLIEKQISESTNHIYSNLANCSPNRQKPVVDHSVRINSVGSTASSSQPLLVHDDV

Kd (KIT kinase) | IC50 (FLT3-ITD) | Kd (FLT3 kinase) | Structure (SMILES)
< 5 nM | < 10 nM | < 5 nM | COc1cc2nc(-c3ccc(CC(=O)Nc4cc(C(C)(C)C(F)(F)F)on4)c(F)c3)cnc2cc1OC1COC1 [Example 147, 2-[2-fluoro-4-[7-methoxy-6-(oxetan-3-yloxy)quinoxalin-2-yl]phenyl]-N-[5-(2,2,2-trifluoro-1,1-dimethyl-ethyl)isoxazol-3-yl]acetamide]
5 to 20 nM | < 10 nM | < 5 nM | COc1cc2nc(-c3ccc(CC(=O)Nc4cc(C(C)(C)C(F)(F)F)on4)c(F)c3)cnc2cc1OC1CNC1 [Example 148, 2-[4-[6-(azetidin-3-yloxy)-7-methoxy-quinoxalin-2-yl]-2-fluoro-phenyl]-N-[5-(2,2,2-trifluoro-1,1-dimethyl-ethyl)isoxazol-3-yl]acetamide]
< 5 nM | < 10 nM | < 5 nM | CCN1CC(Oc2cc3ncc(-c4ccc(CC(=O)Nc5cc(C(C)(C)C(F)(F)F)on5)c(F)c4)nc3cc2OC)C1 [Example 149, 2-[4-[6-(1-ethylazetidin-3-yl)oxy-7-methoxy-quinoxalin-2-yl]-2-fluoro-phenyl]-N-[5-(2,2,2-trifluoro-1,1-dimethyl-ethyl)isoxazol-3-yl]acetamide]
< 5 nM | < 10 nM | < 5 nM | COc1cc2nc(-c3ccc(CC(=O)Nc4cc(C(C)(C)C(F)(F)F)on4)c(F)c3)cnc2cc1OC1CN(C)C1 [Example 150, 2-[2-fluoro-4-[7-methoxy-6-(1-methylazetidin-3-yl)oxy-quinoxalin-2-yl]phenyl]-N-[5-(2,2,2-trifluoro-1,1-dimethyl-ethyl)isoxazol-3-yl]acetamide]
< 5 nM | < 10 nM | < 5 nM | CC(C)(c1cc(NC(=O)Cc2ccc(-c3cnc4c(N)cccc4c3)cc2F)no1)C(F)(F)F [Example 151, 2-[4-(8-amino-3-quinolyl)-2-fluoro-phenyl]-N-[5-(2,2,2-trifluoro-1,1-dimethyl-ethyl)isoxazol-3-yl]acetamide]
< 5 nM | < 10 nM | < 5 nM | COc1cc2nc(O)c(-c3ccc(CC(=O)Nc4cc(C5(C(F)(F)F)CC5)on4)c(F)c3)nc2cc1OC [Example 152, 2-[4-(6,7-dimethoxy-3-hydroxy-quinoxalin-2-yl)-2-fluoro-phenyl]-N-[5-[1-(trifluoromethyl)cyclo-propyl]isoxazol-3-yl]acetamide]
< 5 nM | < 10 nM | < 5 nM | COc1cc2ncc(-c3ccc(CC(=O)Nc4cc(C(C)(C)C)n[nH]4)c(F)c3)nc2cc1OC [Example 153, N-(3-tert-butyl-1H-pyrazol-5-yl)-2-[4-(6,7-dimethoxyquinoxalin-2-yl)-2-fluoro-phenyl]acetamide]
< 5 nM | < 10 nM | < 5 nM | CN(C)C(=O)COc1cc2ncc(-c3ccc(CC(=O)Nc4cc(C5(C(F)(F)F)CC5)on4)c(F)c3)nc2cc1OCC(=O)N(C)C [Example 154, 2-[4-[6,7-bis[2-(dimethylamino)-2-oxo-ethoxy]quinoxalin-2-yl]-2-fluoro-phenyl]-N-[5-[1-(trifluoromethyl)cyclo-propyl]isoxazol-3-yl]acetamide]
5 to 20 nM | < 10 nM | < 5 nM | COc1ccc2ncc(-c3ccc(CC(=O)Nc4cc(C5(C(F)(F)F)CC5)on4)c(F)c3)nc2n1 [Example 155, 2-[2-fluoro-4-(6-methoxypyrido[2,3-b]pyrazin-3-yl)phenyl]-N-[5-[1-(trifluoromethyl)cyclo-propyl]isoxazol-3-yl]acetamide OR 2-[2-fluoro-4-(6-methoxypyrido[2,3-b]pyrazin-2-yl)phenyl]-N-[5-[1-(trifluoromethyl)cyclo-propyl]isoxazol-3-yl]acetamide]
> 50 nM | < 10 nM | > 50 nM | COc1cc2ncc(-c3ccc(CC(=O)Nc4cc(C5(C(F)(F)F)CC5)on4)c(F)c3)nc2cc1OCc1ccccc1 [Example 156, 2-[4-(7-benzyloxy-6-methoxy-quinoxalin-2-yl)-2-fluoro-phenyl]-N-[5-[1-(trifluoromethyl)cyclo-propyl]isoxazol-3-yl]acetamide]
